In US11390591B2, “2,4,6-trisubstituted s-triazine compound, preparation method therefor, and use thereof” (Aluda Pharmaceuticals, Inc., priority 2016, dated 2022):
Read-outs that look alike come from different tables or passages of the source.

Assays:
[1] = test system: cell lines of human brain glioma (U87); assay: In vitro antineoplastic activity, MTT experiment, U87; assay type: cell-based
Description: (§1) MTT, RPM1640 culture medium, fetal bovine serum, 96-well plate, CO2 thermostatic incubator, American BIO-RAD680 microplate reader, cell lines of human non-small cell lung cancer (H522), and cell lines of human brain glioma (U87) were all obtained commercially.
(§2) (1) Cell inoculation: A single cell suspension was prepared with culture media supplemented with 10% fetal bovine serum, plated into a 96-well plate with 5000 cells per well, each well having a volume of 100 μL, and cultured overnight.
(§3) (2) Preparation of compound solutions: a DMSO stock solution of a compound was diluted on a sterile bench with a culture medium into 5 concentrations to be tested, wherein a double dilution was employed between two adjacent concentrations.
(§4) (3) The compound solutions of various concentrations were added into the 96-well plate cultured overnight, with 100 μL added per well, triplicated wells for each concentration. Since the peripheral wells can have edge effect and are susceptible to contamination, no cells or compounds were added thereto; instead, 100 μL culture solution was added as a blank. Additionally, 100% wells were set to contain the cells and 100 μL culture media without any compound. The plates were incubated in a thermostatic incubator at 37° C. for 48 hours.
(§5) (4) Staining: 10 μL MTT solution (5 mg/mL, prepared with PBS) was added into the 96-well plate for staining. After incubation for 4 hours, centrifugation was performed at 2500 rpm for 10 minutes. Then, a multiple pipette was used to suck the culture solution out of the wells carefully without sucking out the cells while the pipette tip faced downward. 150 μL DMSO was added and shaken on a shaker for 5-10 minutes. Crystals were allowed to dissolve fully, and an OD value for each well was measured using the microplate reader at 570 nm. The inhibition rate was calculated as follows: Inhibition rate (%)=(average OD value of 100% wells−average OD value of compound wells)/(average OD value of 100% wells−average OD value of blank wells)×100%

[2] = test system: human colon adenocarcinoma cells (HCT15); assay: Tumor cell vacuolization, HCT15; assay type: cell-based; details: 100 nM, 96 hours, phase contrast microscope
Description: (§6) FIG. 2. Vacuolization of tumor cells. 100 microliter culture medium (RPMI1640, 2 mmol glutamine, 10% fetal bovine serum) containing 10^3 human colon adenocarcinoma cells (HCT15) or human brain glioma cells (U87) and a solvent DMSO control or 100 nM #40 compound (L16) was plated into a 96-well cell culture plate, and cell morphological image was taken under a phase contrast microscope after cultured at 5% CO2 and 37° C. for 96 hours.

human glioma U87 cells = assay: Tumor cell vacuolization (methuosis) scoring, U87; assay type: cell-based; set-up: key to Vacuolation Score: 5 scores were given when obvious vacuolization occurred at 10 nM; 4 scores at 31.6 nM; 3 scores at 100 nM; 2 scores at 316 nM; 1 score at 1000 nM; 0 score was given if no vacuolation occurred at any concentration; details: for Vacuolation Score: 0.01-3.160 μM, microscope
Description: as §6
Some cells gradually became round and eventually bursted. These changes are consistent with the features of cell death by methuosis (FIG. 2).
In order to compare the ability of different compounds to cause cell vacuolization, 100 μL culture media (RPMI1640, 2 mmol glutamine, 10% fetal bovine serum) comprising 10^3 human glioma U87 cells and final concentrations of 0.01, 0.0316, 0.1, 0.316, 1.0, 3.160 μM respectively of the compounds to be tested were inoculated into a 96-well culture plate. After cultured at 5% CO2 and 37° C. for 96 hours, cell morphology was observed under a high-magnification microscope, and the ability of the compounds to cause cell vacuolization was scored. 5 scores were given when obvious vacuolization occurred at 10 nM, 4 scores at 31.6 nM, 3 scores at 100 nM, 2 scores at 316 nM, 1 score at 1000 nM, and 0 score was given if no vacuolation occurred at any concentration.

[3] = test system: cell lines of human non-small cell lung cancer (H522); assay: In vitro antineoplastic activity, MTT experiment, H522; assay type: cell-based; details: H522 cells, 48 hours, highest concentration tested 31.6 μM (>30: inhibition rate <50%)
Description: as §1, §2, §3, §4, §5

vimentin = molecular target: T1, vimentin (Homo sapiens, UniProt P08670); assay: Fishing of a target protein with a probe (photo-crosslinking, click reaction, MALDI-MS/MS); assay type: binding; details: 0.5 μM probe, U87 cells, 3 hours, UV crosslinking
T1 construct: #79 compound used as a probe is bonded in situ to a target protein within a cell; endogenous in cells; host or cells: U87 human glioma cells
T1 sequence (P08670 whole entry): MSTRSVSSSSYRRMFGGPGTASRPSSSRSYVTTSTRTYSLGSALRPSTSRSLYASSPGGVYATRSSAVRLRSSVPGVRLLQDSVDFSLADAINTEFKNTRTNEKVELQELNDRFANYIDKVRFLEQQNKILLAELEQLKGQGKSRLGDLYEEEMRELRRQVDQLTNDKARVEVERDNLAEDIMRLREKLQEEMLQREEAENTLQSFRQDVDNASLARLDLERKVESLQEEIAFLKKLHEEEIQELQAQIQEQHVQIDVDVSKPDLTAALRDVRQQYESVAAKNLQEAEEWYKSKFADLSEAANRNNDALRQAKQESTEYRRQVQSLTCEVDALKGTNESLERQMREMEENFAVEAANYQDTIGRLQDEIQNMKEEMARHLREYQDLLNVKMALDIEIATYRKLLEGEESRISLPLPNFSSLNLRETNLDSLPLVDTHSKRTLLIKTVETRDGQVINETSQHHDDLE
Description: FIG. 4 summarizes isolation and identification of a target protein corresponding to a compound causing cell vacuolization. The related steps are described briefly as follows.
An amount of human glioma cells U87 were plated in an 150 cm^2 Petri dish and cultured for 48 hours to reach 75-90% confluence. The culture medium was replaced with a prewarmed medium containing either 0.5 μM probe (#79 compound) or an equivalent volume of DMSO control. The cells continued in culture for 3 hours.
The cells were washed twice with a prechilled phosphate buffer saline (PBS). The cell-culture dish was placed on ice, and the cells were irradiated with ultraviolet light (an ultraviolet lamp having a power of 100 W, wavelength 350 nm, or 315-385 nm) through the top of the dish for 1 hour. Alternatively, a minimal amount of prechilled PBS (10 ml/150 cm^2) was added to the cell-culture dish which was then placed on an ultraviolet irradiator. The bottom of the cell-culture dish received irradiation for 30 minutes (wavelength 315-385 nm, time being adjusted in light of the ultraviolet power).
The cells were dissociated with trypsin, precipitated by centrifugation, and washed twice with PBS. […] The protein concentration of the cell lysate was measured using the Bradford method. […]

[4] = U87 cells, MTT, 48 hours, highest concentration tested 31.6 μM, read-out: IC50(μM) U87
[5] = ability to inhibit cell proliferation, U87 (FIG. 3), unit inferred, read-out: IC50

Structure (SMILES)	IC50 [1, 4] [µM]	IC50 [1, 5] [µM]	IC50 [3] [µM]	vacuolization of HCT15 cells [2]	vacuolization of U87 cells (human glioma U87 cells; 100 nM, 96 hours, phase contrast microscope)	Vacuolation Score (human glioma U87 cells; U87 cells, 96 hours)	ability to cause cell vacuolization (in words) (human glioma U87 cells; U87 cells, among the compounds tested)	target protein of the compound (vimentin)
O=C(Nc1ccc(Cl)cc1)Nc1ccc(Nc2nc(/C=C/c3cccc([N+](=O)[O-])c3)nc(N3CCOCC3)n2)cc1 [L16, (E)-1-(4-chlorophenyl)-3-(4-(4-(morpholin-1-yl)-6-(3-nitrostyrenyl)-1,3,5-triazinyl-2-amino)phenyl)urea]	1.71 ± 0.06	1.71	0.78 ± 0.04	significant vaculization	significant vaculization	4 (4 scores at 31.6 nM)	–	–
CC1CCN(C(=O)c2ccc(NC(=O)Nc3ccc(Nc4nc(/C=C/c5ccccc5)nc(N5CCOCC5)n4)cc3)cc2)CC1 [L30, (E)-1-(4-((4-methylpiperidin-1-yl)formyl)phenyl)-3-(4-(4-(morpholin-1-yl)-6-styrenyl-1,3,5-triazinyl-2-amino)phenyl)urea]	0.87 ± 0.08	0.9	5.24 ± 1.33	–	–	0	–	–
CN1CCN(C(=O)c2ccc(NC(=O)Nc3ccc(Nc4nc(/C=C/c5ccccc5)nc(N5CCOCC5)n4)cc3)cc2)CC1 [L31, (E)-1-(4-((4-methylpiperazin-1-yl)formyl)phenyl)-3-(4-(4-(morpholin-1-yl)-6-styrenyl-1,3,5-triazinyl-2-amino)phenyl)urea]	0.23 ± 0.01	0.22	1.05 ± 0.04	–	–	2.5	–	–
CN(C)CCNC(=O)c1ccc(NC(=O)Nc2ccc(Nc3nc(/C=C/c4ccccc4)nc(N4CCOCC4)n3)cc2)cc1 [L32, (E)-N-(2-(dimethylamino)ethyl)-4-(3-(4-(4-(morpholin-1-yl)-6-styrenyl-1,3,5-triazinyl-2-amino)phenyl)urea)benzamide]	2.48 ± 0.44	2.8	5.03 ± 0.4	–	–	4.5	–	–
C#CCCC1(CCNC(=O)c2ccc(NC(=O)Nc3ccc(Nc4nc(/C=C/c5ccccc5)nc(N5CCOCC5)n4)cc3)cc2)N=N1 [compound 79, (E)-N-(2-(3-(1-butyn-4-yl)-3H-diaziridin-3-yl)ethyl)-4-(3-(4-((4-(morpholin-1-yl)-6-styrenyl-1,3,5-triazin-2-yl)amino)phenyl)urea)benzamide]	–	–	–	–	–	4.5	same cell phenotype	vimentin

Second part, led by results:

IC50 [1, 4] [µM]	IC50 [1, 5] [µM]	IC50 [3] [µM]	Structure (SMILES)	vacuolization of HCT15 cells [2]	vacuolization of U87 cells (human glioma U87 cells; 100 nM, 96 hours, phase contrast microscope)	Vacuolation Score (human glioma U87 cells; U87 cells, 96 hours)	ability to cause cell vacuolization (in words) (human glioma U87 cells; U87 cells, among the compounds tested)	target protein of the compound (vimentin)
1.3 ± 0.05	1.9	4.31 ± 0.09	CCN(CC)CCNC(=O)c1ccc(NC(=O)Nc2ccc(Nc3nc(/C=C/c4ccccc4)nc(N4CCOCC4)n3)cc2)cc1 [L33, (E)-N-(2-(diethylamino)ethyl)-4-(3-(4-(4-(morpholin-1-yl)-6-styrenyl-1,3,5-triazinyl-2-amino)phenyl)urea)benzamide]	–	–	3.5	–	–
2.31 ± 0.29	3	4.91 ± 0.1	CN(C)CCCNC(=O)c1ccc(NC(=O)Nc2ccc(Nc3nc(/C=C/c4ccccc4)nc(N4CCOCC4)n3)cc2)cc1 [L34, (E)-N-(3-(dimethylamino)propyl)-4-(3-(4-(4-(morpholin-1-yl)-6-styrenyl-1,3,5-triazinyl-2-amino)phenyl)urea)benzamide]	–	–	3.5	–	–
1.43 ± 0.1	2.1	4.14 ± 0.13	O=C(Nc1ccc(Nc2nc(/C=C/c3ccccc3)nc(N3CCOCC3)n2)cc1)Nc1ccc(C(=O)NCCN2CCCC2)cc1 [L35, (E)-N-(2-(pyrrolidin-1-yl)ethyl)-4-(3-(4-(4-(morpholin-1-yl)-6-styrenyl-1,3,5-triazinyl-2-amino)phenyl)urea)benzamide]	–	–	1 (1 score at 1000 nM)	–	–
1.11 ± 0.06	1.25	3.69 ± 0.44	O=C(Nc1ccc(Nc2nc(/C=C/c3ccccc3)nc(N3CCOCC3)n2)cc1)Nc1ccc(C(=O)NCCN2CCCCC2)cc1 [L36, (E)-N-(2-(piperidin-1-yl)ethyl)-4-(3-(4-(4-(morpholin-1-yl)-6-styrenyl-1,3,5-triazinyl-2-amino)phenyl)urea)benzamide]	–	–	1 (1 score at 1000 nM)	–	–
0.55 ± 0.05	0.82	5.19 ± 1.48	O=C(Nc1ccc(Nc2nc(/C=C/c3ccccc3)nc(N3CCOCC3)n2)cc1)Nc1ccc(C(=O)NCCN2CCOCC2)cc1 [L37, (E)-N-(2-(morpholin-1-yl)ethyl)-4-(3-(4-(4-(morpholin-1-yl)-6-styrenyl-1,3,5-triazinyl-2-amino)phenyl)urea)benzamide]	–	–	3.5	–	–
